Measured values reported in ChEMBL document CHEMBL5346898, “Triazole-fused pyrimidines in target-based anticancer drug discovery” (Eur J Med Chem, 2023).

Assays:
Tubulin [1] = assay: Inhibition of tubulin polymerization (unknown origin); format: protein-complex assay, Homo sapiens
eIF-2-alpha kinase GCN2 [2] = target: T1, eIF-2-alpha kinase GCN2 (Homo sapiens, UniProt Q9P2K8); assay: Inhibition of human recombinant GCN2 using eIF2alpha as substrate
G-401 = assay: Anticancer activity against human G-401 cells assessed as cell growth inhibition; format: functional, cell-based
eIF-2-alpha kinase GCN2 [3] = target: T1, eIF-2-alpha kinase GCN2; assay: Inhibition of human GCN2 (unknown origin)
Tubulin [4] = assay: Inhibition of tubulin polymerization (unknown origin) by spectrophotometric analysis; format: protein-complex assay, Homo sapiens
SW620/AD300 = assay: Antitumor activity against […] SW620/AD300 cells xenografted in BALB/c nude mouse assessed as relative tumor proliferation rate at 100 mg/kg/day, IG measured after 15 days relative to control; format: functional, Homo sapiens; details: time 15 day
[5] = target: T2, Ubiquitin carboxyl-terminal hydrolase 28 (Homo sapiens, UniProt Q96RU2); assay: Inhibition of USP28 (unknown origin)
T2 sequence (Q96RU2 whole entry): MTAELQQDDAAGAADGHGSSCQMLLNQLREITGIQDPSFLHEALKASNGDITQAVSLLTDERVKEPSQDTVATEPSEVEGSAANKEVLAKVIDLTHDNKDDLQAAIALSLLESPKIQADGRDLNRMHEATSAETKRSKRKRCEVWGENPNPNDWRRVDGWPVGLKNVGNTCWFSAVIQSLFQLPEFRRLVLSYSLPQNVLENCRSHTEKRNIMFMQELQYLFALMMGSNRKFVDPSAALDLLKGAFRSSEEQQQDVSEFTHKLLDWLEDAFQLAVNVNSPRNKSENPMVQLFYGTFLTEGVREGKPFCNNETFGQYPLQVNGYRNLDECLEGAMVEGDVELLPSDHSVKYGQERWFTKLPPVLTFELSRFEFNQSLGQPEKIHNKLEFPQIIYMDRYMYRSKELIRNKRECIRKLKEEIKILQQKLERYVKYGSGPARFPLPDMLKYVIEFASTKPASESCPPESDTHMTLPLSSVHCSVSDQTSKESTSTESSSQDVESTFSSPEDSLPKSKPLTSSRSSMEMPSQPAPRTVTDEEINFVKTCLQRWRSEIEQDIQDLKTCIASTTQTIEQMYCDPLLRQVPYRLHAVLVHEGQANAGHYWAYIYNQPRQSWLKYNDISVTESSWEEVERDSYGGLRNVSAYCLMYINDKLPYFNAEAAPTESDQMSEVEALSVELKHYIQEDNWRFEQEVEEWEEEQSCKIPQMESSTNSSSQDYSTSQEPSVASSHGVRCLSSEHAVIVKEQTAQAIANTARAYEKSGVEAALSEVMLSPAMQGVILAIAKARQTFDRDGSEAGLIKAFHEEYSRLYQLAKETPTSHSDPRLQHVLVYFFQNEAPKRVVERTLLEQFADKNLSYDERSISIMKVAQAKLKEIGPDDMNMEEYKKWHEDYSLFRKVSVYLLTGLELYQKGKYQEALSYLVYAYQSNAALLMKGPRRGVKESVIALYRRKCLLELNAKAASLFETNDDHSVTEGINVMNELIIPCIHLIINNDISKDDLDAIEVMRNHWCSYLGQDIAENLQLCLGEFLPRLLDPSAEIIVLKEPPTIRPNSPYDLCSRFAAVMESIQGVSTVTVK

[6] = target: Ubiquitin carboxyl-terminal hydrolase 7 (Homo sapiens, UniProt Q93009); assay: Inhibition of USP7 (unknown origin)
[7] = target: Lysine-specific histone demethylase 1A (Homo sapiens, UniProt O60341); assay: Inhibition of LSD1 (unknown origin)
Polycomb protein EED = Polycomb protein EED (Homo sapiens, UniProt O75530); assay: Inhibition of EED (unknown origin)
[8] = Anticancer activity against human A2780AD cells assessed as cell growth measured after 48 hrs by MTT assay; format: functional, cell-based
A2780 = assay: Anticancer activity against human A2780 cells assessed as cell growth measured after 48 hrs by MTT assay; format: functional, cell-based; details: A2780, 48 h
Tubulin (Homo sapiens) = Tubulin (Homo sapiens) (UniProt P68371+Q9H4B7+P0DPH7+P68366+Q13509+Q71U36+P04350+Q3ZCM7+P07437+P68363+Q9BQE3+Q6PEY2+Q13885+Q9BVA1+Q9BUF5); assay: Inhibition of tubulin polymerization (unknown origin) at 10 uM by spectrophotometric analysis relative to control; format: protein-complex assay

T1 sequence (Q9P2K8 whole entry): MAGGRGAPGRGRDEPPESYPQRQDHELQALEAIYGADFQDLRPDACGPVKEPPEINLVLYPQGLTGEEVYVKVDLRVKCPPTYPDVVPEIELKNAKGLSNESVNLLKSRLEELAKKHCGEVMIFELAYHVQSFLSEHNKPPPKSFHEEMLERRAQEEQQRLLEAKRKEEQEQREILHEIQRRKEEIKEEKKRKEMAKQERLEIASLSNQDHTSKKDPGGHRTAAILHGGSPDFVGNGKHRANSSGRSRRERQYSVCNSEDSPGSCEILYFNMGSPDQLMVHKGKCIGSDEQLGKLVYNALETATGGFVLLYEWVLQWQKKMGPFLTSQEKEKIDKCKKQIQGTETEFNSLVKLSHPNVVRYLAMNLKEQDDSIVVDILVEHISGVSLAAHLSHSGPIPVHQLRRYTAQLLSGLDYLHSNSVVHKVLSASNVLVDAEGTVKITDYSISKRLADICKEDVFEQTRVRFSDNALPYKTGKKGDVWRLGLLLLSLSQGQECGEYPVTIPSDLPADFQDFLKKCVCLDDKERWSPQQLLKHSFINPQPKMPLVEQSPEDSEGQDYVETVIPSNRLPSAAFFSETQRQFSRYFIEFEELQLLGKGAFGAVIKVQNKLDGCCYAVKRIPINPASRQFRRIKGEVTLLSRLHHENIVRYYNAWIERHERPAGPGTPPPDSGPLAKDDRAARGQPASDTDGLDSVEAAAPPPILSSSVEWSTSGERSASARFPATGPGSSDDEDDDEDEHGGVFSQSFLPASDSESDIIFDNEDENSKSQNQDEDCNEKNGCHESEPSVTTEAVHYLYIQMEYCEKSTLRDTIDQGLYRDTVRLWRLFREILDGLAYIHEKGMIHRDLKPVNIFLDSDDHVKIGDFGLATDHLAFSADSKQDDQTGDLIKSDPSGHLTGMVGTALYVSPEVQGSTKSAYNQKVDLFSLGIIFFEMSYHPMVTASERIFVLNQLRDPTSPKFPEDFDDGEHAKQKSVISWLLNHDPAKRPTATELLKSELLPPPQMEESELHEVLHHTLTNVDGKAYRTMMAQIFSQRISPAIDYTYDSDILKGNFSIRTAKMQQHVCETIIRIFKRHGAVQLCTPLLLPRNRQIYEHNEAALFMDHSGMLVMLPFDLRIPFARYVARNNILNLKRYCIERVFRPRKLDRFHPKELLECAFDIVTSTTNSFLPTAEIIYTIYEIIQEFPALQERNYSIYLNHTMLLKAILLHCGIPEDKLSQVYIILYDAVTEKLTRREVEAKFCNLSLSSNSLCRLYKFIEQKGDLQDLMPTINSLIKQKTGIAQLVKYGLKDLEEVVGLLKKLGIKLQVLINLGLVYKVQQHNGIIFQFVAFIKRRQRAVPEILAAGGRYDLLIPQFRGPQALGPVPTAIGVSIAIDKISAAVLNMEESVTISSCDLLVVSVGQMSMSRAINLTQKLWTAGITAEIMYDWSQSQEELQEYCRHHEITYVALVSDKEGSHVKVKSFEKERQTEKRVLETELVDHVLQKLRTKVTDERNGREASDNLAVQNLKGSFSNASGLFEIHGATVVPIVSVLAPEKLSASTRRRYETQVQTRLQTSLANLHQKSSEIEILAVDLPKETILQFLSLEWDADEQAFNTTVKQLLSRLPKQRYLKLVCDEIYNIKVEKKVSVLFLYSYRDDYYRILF
Sequence of Polycomb protein EED (O75530 whole entry): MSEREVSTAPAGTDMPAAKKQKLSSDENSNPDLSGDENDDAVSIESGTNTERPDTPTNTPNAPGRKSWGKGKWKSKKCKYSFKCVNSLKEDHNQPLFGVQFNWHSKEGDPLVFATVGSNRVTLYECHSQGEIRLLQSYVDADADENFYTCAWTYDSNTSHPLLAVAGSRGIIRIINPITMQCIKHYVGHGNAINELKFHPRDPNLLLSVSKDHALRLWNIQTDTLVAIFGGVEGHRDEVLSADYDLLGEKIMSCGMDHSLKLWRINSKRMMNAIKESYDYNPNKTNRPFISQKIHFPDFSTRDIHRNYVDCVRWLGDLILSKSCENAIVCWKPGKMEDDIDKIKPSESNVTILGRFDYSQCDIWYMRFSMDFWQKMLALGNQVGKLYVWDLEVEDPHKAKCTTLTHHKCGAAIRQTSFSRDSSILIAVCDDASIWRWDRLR
Sequence of Ubiquitin carboxyl-terminal hydrolase 7 (Q93009 whole entry): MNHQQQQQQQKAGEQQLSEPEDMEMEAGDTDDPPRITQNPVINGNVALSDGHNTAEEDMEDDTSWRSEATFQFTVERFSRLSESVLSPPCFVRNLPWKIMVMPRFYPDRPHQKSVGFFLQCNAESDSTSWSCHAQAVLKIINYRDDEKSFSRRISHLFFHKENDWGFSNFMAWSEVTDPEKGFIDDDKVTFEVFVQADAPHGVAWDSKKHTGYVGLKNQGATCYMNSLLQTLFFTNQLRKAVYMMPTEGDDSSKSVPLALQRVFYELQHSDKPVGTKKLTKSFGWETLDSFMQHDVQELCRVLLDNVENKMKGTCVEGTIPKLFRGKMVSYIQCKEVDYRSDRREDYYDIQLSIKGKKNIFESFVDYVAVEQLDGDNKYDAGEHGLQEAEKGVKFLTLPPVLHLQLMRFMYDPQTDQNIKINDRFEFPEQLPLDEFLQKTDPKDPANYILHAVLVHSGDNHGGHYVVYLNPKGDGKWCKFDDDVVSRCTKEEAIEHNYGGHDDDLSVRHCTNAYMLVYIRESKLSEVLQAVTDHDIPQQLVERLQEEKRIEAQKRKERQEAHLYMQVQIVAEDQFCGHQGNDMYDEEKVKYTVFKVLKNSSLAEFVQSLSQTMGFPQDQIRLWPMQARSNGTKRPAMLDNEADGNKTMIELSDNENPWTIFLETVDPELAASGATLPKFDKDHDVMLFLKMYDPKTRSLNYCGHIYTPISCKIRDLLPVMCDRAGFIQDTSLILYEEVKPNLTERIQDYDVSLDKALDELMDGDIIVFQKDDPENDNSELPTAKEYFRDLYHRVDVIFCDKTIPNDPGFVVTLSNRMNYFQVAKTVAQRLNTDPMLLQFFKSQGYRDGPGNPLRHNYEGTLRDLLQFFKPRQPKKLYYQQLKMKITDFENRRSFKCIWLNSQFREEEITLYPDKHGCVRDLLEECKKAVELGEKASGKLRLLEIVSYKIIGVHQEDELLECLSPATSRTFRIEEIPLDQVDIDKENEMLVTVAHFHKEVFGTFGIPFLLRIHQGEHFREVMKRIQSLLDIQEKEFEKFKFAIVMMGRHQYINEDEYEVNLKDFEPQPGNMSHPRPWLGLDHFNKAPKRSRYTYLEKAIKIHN

For `Cc1cc(Nc2ccc(F)cc2)n2nc(NCCCc3ccccc3)nc2n1`, which IC50 (Tubulin [1]) is on record?
The IC50 was 390 nM.

For `COc1ccc(-n2nnc3cnc(Nc4ccc(N)c(C)c4)nc32)cc1`, which IC50 (eIF-2-alpha kinase GCN2 [2]) is on record?
Its IC50 is 4 nM.

For `N#Cc1c2c(c3nncn3c1NCc1ccco1)CN(Cc1ccccc1)CC2`, which IC50 (G-401) is on record?
The IC50 was 3280 nM.

With `c1nn(C2CCOCC2)cc1Nc1ncc2nnn(-c3ccc4cn[nH]c4c3)c2n1` as the compound, how does the IC50 (eIF-2-alpha kinase GCN2 [3]) read?
The IC50 was under 300 nM.

With `COc1ccc(-c2c(C(C)=O)c(C)nc3nc(-c4cc(OC)c(OC)c(OC)c4)nn23)cc1[N+](=O)[O-]` as the compound, how does the IC50 (Tubulin [4]) read?
The IC50 was 9900 nM.

Which T/C (SW620/AD300) does the source give for `Cc1cc(Nc2ccccc2)n2nc(SCc3nc4ccccc4[nH]3)nc2n1` here?
Its T/C is 29.7%.

With `CCOc1ccc(-n2nnc3cnc(Nc4cnn(C5CCOCC5)c4)nc32)cc1` as the compound, how does the IC50 (eIF-2-alpha kinase GCN2 [3]) read?
Its IC50 is 16 nM.

Which IC50 [5] does the source give for `CCCSc1nc(NCCN)c2nnn(Cc3ccc(Cl)cc3)c2n1` here?
Its IC50 is 1100 nM.

What about the IC50 [6] of the same compound?
Its IC50 is over 100000 nM.

What about the IC50 [7] of the same compound?
Its IC50 is over 100000 nM.

Which results are given for `CS(=O)(=O)c1ccc(-c2cnc(NCc3ccco3)n3cnnc23)cc1`?
IC50 (G-401): 85000 nM; IC50 (Polycomb protein EED): 30 nM

Which IC50 (Tubulin [1]) does the source give for `COc1cc(-c2cc(-c3ccc(Cl)cc3)nc3nc(N)nn23)cc(OC)c1OC` here?
The IC50 was 3840 nM.

For `Cc1ncccc1-c1cnc(NCc2c(F)cc(N)c3c2CCO3)n2cnnc12`, which IC50 (Polycomb protein EED) is on record?
The IC50 was 50 nM.

For `CO[C@H]1C[C@H]2CC[C@@H](C1)N2c1c(-c2c(F)cc(F)cc2F)c(Cl)nc2ncnn12`, which IC50 [8] is on record?
Its IC50 is 81 nM.

And the IC50 (A2780)?
Its IC50 is 51 nM.

With `COc1cc(-c2nc3nc(C)c(C(C)=O)c(-c4ccc([N+](=O)[O-])cc4)n3n2)cc(OC)c1OC` as the compound, how does the inhibition (Tubulin (Homo sapiens)) read?
Its inhibition is 42%.
